Assay results reported in patent US9232796B2, “Herbicidal compositions comprising 4-amino-3-chloro-5-fluoro-6-(4-chloro-2-fluoro-3-methoxyphenyl) pyridine-2-carboxylic acid or a derivative thereof and acetyl-CoA carboxylase (ACCase) inhibitors” (DOW AGROSCIENCES LLC, priority 2012, dated 2016).

Assays:
[1] = system: ECHCG; experiment: Example VI in-water applied ternary mixtures, greenhouse, transplanted paddy rice weeds; assay type: in vivo, Echinochloa crus-galli (L.) Beauv.
Outline: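 Compound A (SC, acid-equivalent basis) alone or with cyhalofop-R-butyl or metamifop plus a third herbicide, injected into paddy water of greenhouse-grown transplanted rice and weeds at 1st–4th leaf stage (~29/26 °C). Visual injury scored 0–100% after ~3 weeks vs untreated; expected mixture effects by Colby's equation.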

[2] = system: SCPJU; experiment: as above; assay type: in vivo, Schoenoplectus juncoides (Roxb.) Palla; details: 17.5 gai/ha
Method: (§1) Weed seeds or nutlets of the desired test plant species were planted in puddled soil (mud) prepared by mixing a shredded, non-sterilized mineral soil (50.5 percent silt, 25.5 percent clay, and 24 percent sand, with a pH of about 7.6 and an organic matter content of about 2.9 percent) and water at a 1:1 volumetric ratio. The prepared mud was dispensed in 365 mL aliquots into 16-ounce (oz.) non-perforated plastic pots with a surface area of 86.59 square centimeters (cm^2) leaving a headspace of 3 centimeters (cm) in each pot. Mud was allowed to dry overnight prior to planting or transplanting. Rice seeds were planted in Sun Gro MetroMix® 306 planting mixture, which typically has a pH of 6.0 to 6.8 and an organic matter content of about 30 percent, in plastic plug trays. Seedlings at the second or third leaf stage of growth were transplanted into 860 mL of mud contained in 32-oz. non-perforated plastic pots with a surface area of 86.59 cm^2 4 days prior to herbicide application. The paddy was created by filling the headspace of the pots with 2.5 to 3 cm of water. When required to ensure good germination and healthy plants, a fungicide treatment and/or other chemical or physical treatment was applied. The plants were grown for 4-22 days in a greenhouse with an approximate 14 hr. photoperiod which was maintained at about 29° C. during the day and 26° C. during the night. Nutrients were added as Osmocote® (19:6:12, N:P:K+minor nutrients) at 2 g per 16-oz. pot and 4 g per 32-oz. pot. Water was added on a regular basis to maintain the paddy flood, and supplemental lighting was provided with overhead metal halide 1000-Watt lamps as necessary. The plants were employed for testing when they reached the first through fourth true leaf stage.
(§2) Treatments consisted of the benzyl ester of 4-amino-3-chloro-5-fluoro-6-(4-chloro-2-fluoro-3-methoxy-phenyl)pyridine-2-carboxylic acid (Compound A), formulated as an SC (suspension concentrate), an ACCase inhibitor herbicide, and a third herbicidal component, each applied alone and in ternary combination. Forms of compound A were applied on an acid equivalent basis.
The ACCase inhibitor component was applied on an active ingredient basis and included cyhalofop-R-butyl formulated as Clincher® G and metamifop formulated as Metamifop EC. […]
(§3) Treatment requirements for each compound or herbicidal component were calculated based upon the rates being tested, the concentration of active ingredient or acid equivalent in the formulation, an application volume of 1 mL per component per pot, and an application area of 86.59 cm^2 per pot.
For formulated compounds, a measured amount was placed in an individual 100 or 200 mL glass vial and was dissolved in a volume of 1.25% (v/v) Agri-Dex® crop oil concentrate to obtain application solutions. […]

[3] = system: ECHOR; experiment: Example V (second) postemergence foliar-applied ternary mixtures, greenhouse, direct seeded rice weeds; assay type: in vivo, Echinochloa oryzoides (Ard.) Fritsch
Method: Seeds or nutlets of the desired test plant species were planted in a soil matrix prepared by mixing a sandy loam or loam soil (e.g., 32 percent silt, 23 percent clay, and 45 percent sand, with a pH of about 6.5 and an organic matter content of about 1.9 percent) and calcareous grit in an 80 to 20 ratio. The soil matrix was contained in plastic pots with a volume of 1 quart and a surface area of 83.6 square centimeters (cm^2). […] The plants were grown for 8-22 days in a greenhouse with an approximate 14 hr. photoperiod which was maintained at about 29° C. during the day and 26° C. during the night. Nutrients (Peters Excel® 15-5-15 5-Ca 2-Mg and iron chelate) were applied in the irrigation solution as needed and water was added on a regular basis. Supplemental lighting was provided with overhead metal halide 1000-Watt lamps as necessary. The plants were employed for testing when they reached the first through fourth true leaf stage.
(§4) Treatments consisted of the benzyl ester of 4-amino-3-chloro-5-fluoro-6-(4-chloro-2-fluoro-3-methoxy-phenyl)pyridine-2-carboxylic acid (Compound A), formulated as an SC (suspension concentrate), an ACCase inhibitor, and a third herbicidal component, each applied alone and in ternary combination. Forms of compound A were applied on an acid equivalent basis.
For treatments comprised of formulated compounds, measured amounts of compounds were placed individually in 25 mL glass vials and diluted in a volume of 1.25% (v/v) Agri-Dex® crop oil concentrate to obtain 12× stock solutions. […] Application solutions were prepared by adding an appropriate amount of each stock solution (e.g., 1 mL) and diluted to the appropriate final concentrations with the addition of 9 mL of an aqueous mixture of 1.25% (v/v) crop oil concentrate so that the final spray solutions contained 1.25% (v/v) crop oil concentrate.
As required, additional water and/or 97:3 v/v acetone/DMSO was added to individual application solutions so that the final acetone and DMSO concentrations of the application solutions being compared were 8.1% and 0.25%, respectively.
(§5) All stock solutions and applications solutions were visually inspected for compound compatibility prior to application. Spray solutions were applied to the plant material with an overhead Mandel track sprayer equipped with a 8002E nozzles calibrated to deliver 187 L/ha over an application area of 0.503 m^2 at a spray height of 18 inches (46 cm) above average plant canopy height. Control plants were sprayed in the same manner with the solvent blank.
(§6) The treated plants and control plants were placed in a greenhouse as described above and watered by sub-irrigation to prevent wash-off of the test compounds. After approximately 3 weeks, the condition of the test plants as compared with that of the untreated plants was determined visually and scored on a scale of 0 to 100 percent where 0 corresponds to no injury or growth inhibition and 100 corresponds to complete kill.
(§7) Colby's equation was used to determine the herbicidal effects expected from the mixtures (Colby, S. R. 1967. Calculation of the synergistic and antagonistic response of herbicide combinations. Weeds 15:20-22.).
(§8) The following equation was used to calculate the expected activity of mixtures containing three active ingredients, A, B, and C: Expected=A+B+C−((A×B+A×C+B×C)/100)+(A×B×C/10000)

[4] = system: CYPIR; experiment: as above; assay type: in vivo, Cyperus iria L.
Method: as §6, §7, §8

[5] = system: ECHOR; experiment: Example VI in-water applied ternary mixtures, greenhouse, transplanted paddy rice weeds; assay type: in vivo, Echinochloa oryzoides (Ard.) Fritsch
Method: as §1, §2
(§9) The ACCase inhibitor component was applied on an active ingredient basis and included cyhalofop-R-butyl formulated as Clincher® G and metamifop formulated as Metamifop EC. Other herbicidal components were applied on an active ingredient or acid equivalent basis depending on the compound and included penoxsulam formulated as Grasp® SC, bentazon sodium formulated as Basagran®, triclopyr […] (TEA) salt formulated as Grandstand® R, benzobicyclon formulated as Benzobicyclon, benfuresate formulated as Full Slot® WG, pyraclonil formulated as Pyraclon® Flowable, mefenacet (technical grade material), and pretilachlor (technical grade material).
as §3
(§10) For formulated compounds, a measured amount was placed in an individual 100 or 200 mL glass vial and was dissolved in a volume of 1.25% (v/v) Agri-Dex® crop oil concentrate to obtain application solutions.
(§11) For technical grade compounds, a weighed amount was placed in an individual 100 to 200 mL glass vial and was dissolved in a volume of acetone to obtain concentrated stock solutions.
(§12) Applications were made by injecting with a pipetter appropriate amounts of the application solutions, into the aqueous layer of the paddy. Control plants were treated in the same manner with the solvent blank. Applications were made so that all treated plant material received the same concentrations of acetone and crop oil concentrate.
(§13) The treated plants and control plants were placed in a greenhouse as described above and water was added as needed to maintain a paddy flood. […]

[6] = system: FIMMI; experiment: as above; assay type: in vivo, Fimbristylis miliacea (L.) Vahl
Method: as §1, §2, §9, §3, §10, §11, §12, §13

[7] = system: CYPRO; experiment: as above; assay type: in vivo, Cyperus rotundus L.
Method: as §1, §2, §9, §3, §10, §11, §12, §13

[8] = system: IPOHE; experiment: Example V (second) postemergence foliar-applied ternary mixtures, greenhouse, direct seeded rice weeds; assay type: in vivo, Ipomoea hederacea Jacq.; details: Penoxsulam 8.75 gai/ha
Source text: as §5, §6, §7, §8

[9] = system: SCPMA; experiment: Example VI in-water applied ternary mixtures, greenhouse, transplanted paddy rice weeds; assay type: in vivo, Schoenoplectus maritimus (L.) Lye; details: 5 gai/ha
Method: as §12
The treated plants and control plants were placed in a greenhouse as described above and water was added as needed to maintain a paddy flood. After approximately 3 weeks the condition of the test plants as compared with that of the untreated plants was determined visually and scored on a scale of 0 to 100 percent where 0 corresponds to no injury or growth inhibition and 100 corresponds to complete kill.
as §7
The following equation was used to calculate the expected activity of mixtures containing three active ingredients, A. B, and C: Expected=A+B+C−((A×B+A×C+B×C)/100)+(A×B×C/10000)

[10] = system: ECHCG; experiment: Example V (second) postemergence foliar-applied ternary mixtures, greenhouse, direct seeded rice weeds; assay type: in vivo, Echinochloa crus-galli (L.) Beauv.; details: 17.5 gae/ha
Outline: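 Compound A (SC, acid equivalent), an ACCase inhibitor and a third herbicide were sprayed alone and as ternary mixtures postemergence at 187 L/ha with 1.25% v/v crop oil concentrate on greenhouse plants at the 1st–4th true leaf stage (29/26 °C day/night, ~14 h photoperiod). Injury was scored visually at ~3 weeks (0–100%) against untreated plants, and Colby's equation gave the expected mixture effects.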

[11] = system: ECHCO; experiment: as above; assay type: in vivo, Echinochloa colona (L.) Link; details: 17.5 gae/ha
Method: as §6, §7, §8

[12] = system: SCPJU; experiment: as above; assay type: in vivo, Schoenoplectus juncoides (Roxb.) Palla; details: 17.5 gae/ha
Source text: Seeds or nutlets of the desired test plant species were planted in a soil matrix prepared by mixing a sandy loam or loam soil (e.g., 32 percent silt, 23 percent clay, and 45 percent sand, with a pH of about 6.5 and an organic matter content of about 1.9 percent) and calcareous grit in an 80 to 20 ratio. The soil matrix was contained in plastic pots with a volume of 1 quart and a surface area of 83.6 square centimeters (cm^2). When required to ensure good germination and healthy plants, a fungicide treatment and/or other chemical or physical treatment was applied. The plants were grown for 8-22 days in a greenhouse with an approximate 14 hr. photoperiod which was maintained at about 29° C. during the day and 26° C. during the night. Nutrients (Peters Excel® 15-5-15 5-Ca 2-Mg and iron chelate) were applied in the irrigation solution as needed and water was added on a regular basis. Supplemental lighting was provided with overhead metal halide 1000-Watt lamps as necessary. The plants were employed for testing when they reached the first through fourth true leaf stage.
as §4
The ACCase inhibitor component was applied on an active ingredient basis and included cyhalofop-R-butyl formulated as Clincher® SF, fenoxaprop-p-ethyl formulated as RiceStar® HT, and profoxydim formulated as Aura® 20EC. Other herbicidal components were applied on an active ingredient or acid equivalent basis depending on the compound and included penoxsulam formulated as Grasp® SC, bentazon sodium formulated as Basagran®, triclopyr […] (TEA) salt formulated as Grandstand® R, bispyribac sodium formulated as Regiment® 80WP, imazamox ammonium formulated as Beyond®, benzobicyclon, quinclorac formulated as Facet® 75DF, glyphosate dimethylammonium (DMA) salt formulated as Durango® DMA, glufosinate ammonium formulated as Ignite® 280, fentrazamide formulated as an emulsifiable concentrate (EC), propyrisulfuron formulated as Zeta One®, and indanofan (technical grade material).
Treatment requirements were calculated based upon the rates being tested, the concentration of active ingredient or acid equivalent in the formulation, and a 12 mL application volume at a rate of 187 L/ha.
For treatments comprised of formulated compounds, measured amounts of compounds were placed individually in 25 mL glass vials and diluted in a volume of 1.25% (v/v) Agri-Dex® crop oil concentrate to obtain 12× stock solutions. […]

CCN(CC)CC.O=C(O)COc1nc(Cl)c(Cl)cc1Cl [Triclopyr TEA] was tested, and the “Visual Weed Control (%) - 21 DAA ECHCG Obs” value ([1]; 17.5 gai/ha, first set) was 0%, the “Visual Weed Control (%) - 21 DAA ECHCG Obs” value ([1]; 35 gai/ha, second set) was 0% and the “Visual Weed Control (%) - 21 DAA SCPJU Obs” value [2] was 8%.
For COc1cnc(OC)n2nc(NS(=O)(=O)c3c(OCC(F)F)cccc3C(F)(F)F)nc12 [Penoxsulam], the “Visual Weed Control (%) - 22 DAA ECHOR Obs” value ([3]; 4.38 gai/ha) was 45%, the “Visual Weed Control (%) - 22 DAA ECHOR Obs” value ([3]; 8.75 gai/ha) was 53% and the “Visual Weed Control (%) - 22 DAA CYPIR Obs” value ([4]; 4.38 gai/ha) was 50%. For the same compound, the “Visual Weed Control (%) - 24 DAA ECHOR Obs” value ([5]; Table 71, 5 gai/ha) was 65%, the “Visual Weed Control (%) - 24 DAA ECHOR Obs” value ([5]; Table 71, 10 gai/ha) was 93% and the “Visual Weed Control (%) - 21 DAA FIMMI Obs” value ([6]; 1.25 gai/ha) was 33%. The “Visual Weed Control (%) - 24 DAA FIMMI Obs” value ([6]; 2.5 gai/ha) was 60%, the “Visual Weed Control (%) - 21 DAA ECHCG Obs” value ([1]; 1.25 gai/ha, first sub-table) was 17% and the “Visual Weed Control (%) - 21 DAA ECHCG Obs” value ([1]; 2.5 gai/ha, second sub-table) was 55%. For the same compound, the “Visual Weed Control (%) - 21 DAA CYPRO Obs” value ([7]; 1.25 gai/ha) was 0%, the “Visual Weed Control (%) - 24 DAA CYPRO Obs” value ([7]; 2.5 gai/ha) was 0% and the “Visual Weed Control (%) - 24 DAA CYPRO Obs” value ([7]; 5 gai/ha) was 0%. For the same compound, the “Visual Weed Control (%) - 21 DAA IPOHE Obs” value [8] was 48% and the “Visual Weed Control (%) - 24 DAA SCPMA Obs” value [9] was 30%.
For CCN(CC)CC.O=C(O)COc1nc(Cl)c(Cl)cc1Cl [Triclopyr TEA Salt], the “Visual Weed Control (%) - 21 DAA CYPIR Obs” value ([4]; 17.5 gae/ha) was 0%, the “Visual Weed Control (%) - 21 DAA ECHCG Obs” value [10] was 0% and the “Visual Weed Control (%) - 21 DAA ECHCO Obs” value [11] was 3%. The “Visual Weed Control (%) - 21 DAA SCPJU Obs” value [12] was 43%.
